According to patent publication US20230096517A1, “GLUTARIMIDE SKELETON-BASED COMPOUNDS AND APPLICATION THEREOF” (SHANGHAITECH UNIVERSITY, priority 2020, published 2023):

System: MM.1S cells
Experiment: Proliferation inhibition (IC50) in multiple myeloma cells, cell viability with WST/CCK-8 reagent;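 note: MM.1S B-lymphoblast cells at 15,000 per well in 100 µL serum-containing RPMI1640, experiment run more than three times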
Details: Homo sapiens, MM1.S, 72 h, read-out: IC50 (half inhibitory concentration)
Protocol: Multiple myeloma cell line: MM.1S (B lymphoblast), purchased from ATCC (American Type Culture Collection). Culture medium was RPMI1640 supplemented with 10% FBS and 1% Penicillin-Streptomycin. The cells used were identified as correct cells by STR cells and negative for mycoplasma by routine inspections.
IC50 values of the compounds of the present disclosure were measured using Cell Titer Blue, Cell Titer GLO, or WST reagent from Promega Company. Assay details are as follows: Cells were seeded in 100 μL RPMI1640 complete medium containing serum at a density of 15,000 cells/well.
The experiment was repeated more than three times.

SMILES	IC50
O=C1CCC(N2Cc3c(C#CCCCCCCCNC45CC6CC(CC(C6)C4)C5)cccc3C2=O)C(=O)N1 (stereo not drawn) [SIAIS1222047, 3-(4-(9-((adamantan-1-yl)amino)non-1-yn-1-yl)-1-oxoisoindolin-2-yl)piperidine-2,6-dione]	13 nM
O=C1CCC(N2Cc3c(NCCCCCCCCNC45CC6CC(CC(C6)C4)C5)cccc3C2=O)C(=O)N1 (stereo not drawn) [SIAIS1222045, 3-(4-((8-((adamantan-1-yl)amino)octyl)amino)-1-oxoisoindolin-2-yl)piperidine-2,6-dione]	3.78 nM
O=C1CCC(N2C(=O)c3cccc(OCCCCCCCNC45CC6CC(CC(C6)C4)C5)c3C2=O)C(=O)N1 (stereo not drawn) [SIAIS1221077, 4-((7-((adamantan-1-yl)amino)heptyl)oxy)-2-(2,6-dioxopiperidin-3-yl)isoindoline-1,3-dione]	5.53 nM
O=C1CCC(N2C(=O)c3cccc(NCCCCCCNC45CC6CC(CC(C6)C4)C5)c3C2=O)C(=O)N1 (stereo not drawn) [SIAIS1222093, 4-((6-((adamantan-1-yl)amino)hexyl)amino)-2-(2,6-dioxopiperidin-3-yl)isoindoline-1,3-dione]	1.58 nM
O=C1CCC(N2Cc3c(NCc4ccc(CNC56CC7CC(CC(C7)C5)C6)cc4)cccc3C2=O)C(=O)N1 (stereo not drawn) [SIAIS1222025, 3-(4-((4-(((adamantan-1-yl)amino)methyl)benzyl)amino)-1-oxoisoindolin-2-yl)piperidine-2,6-dione]	3.24 nM
O=C1CCC(N2Cc3c(CCc4ccc(CNCC56CC7CC(CC(C7)C5)C6)cc4)cccc3C2=O)C(=O)N1 (stereo not drawn) [SIAIS1222053, 3-(4-(4-((((adamantan-1-yl)methyl)amino)methyl)phenethyl)-1-oxoisoindolin-2-yl)piperidine-2,6-dione]	1.61 nM
Nc1cccc2c1C(=O)N(C1CCC(=O)NC1=O)C2=O (stereo not drawn) [pomalidomide, reference compound]	9.4 ± 1.3 nM
O=C1CCC(N2Cc3c(C#CCCCCCCNC45CC6CC(CC(C6)C4)C5)cccc3C2=O)C(=O)N1 (stereo not drawn) [SIAIS1221095, 3-(4-(8-((adamantan-1-yl)amino)oct-1-yn-1-yl)-1-oxoisoindolin-2-yl)piperidine-2,6-dione]	2.21 nM
O=C1CCC(N2C(=O)c3ccc(NCCCCCCNC45CC6CC(CC(C6)C4)C5)cc3C2=O)C(=O)N1 (stereo not drawn) [SIAIS1242067, 5-((6-((adamantan-1-yl)amino)hexyl)amino)-2-(2,6-dioxopiperidin-3-yl)isoindoline-1,3-dione]	17.7 nM
O=C1CCC(N2Cc3c(OCCCCCCNC45CC6CC(CC(C6)C4)C5)cccc3C2=O)C(=O)N1 (stereo not drawn) [SIAIS1222163, 3-(4-((6-((adamantan-1-yl)amino)hexyl)oxy)-1-oxoisoindolin-2-yl)piperidine-2,6-dione]	2.11 nM
O=C1CCC(N2Cc3c(NCCCCCCCN4CCCCC4)cccc3C2=O)C(=O)N1 (stereo not drawn) [SIAIS1220125, 3-(1-oxo-4-((7-(piperidin-1-yl)heptyl)amino)isoindolin-2-yl)piperidine-2,6-dione, reference compound]	697 nM
O=C1CCC(N2Cc3c(CCc4ccc(CNC56CC7CC(CC(C7)C5)C6)cc4)cccc3C2=O)C(=O)N1 (stereo not drawn) [SIAIS1222051, 3-(4-(4-(((adamantan-1-yl)amino)methyl)phenethyl)-1-oxoisoindolin-2-yl)piperidine-2,6-dione]	4.1 nM
O=C1CCC(N2Cc3c(NCCCCCCCNC45CC6CC(CC4C6)C5)cccc3C2=O)C(=O)N1 (stereo not drawn) [SIAIS1242071, 3-(4-((7-((hexahydro-2,5-methanopentalen-3a(1H)-yl)amino)heptyl)amino)-1-oxoisoindolin-2-yl)piperidine-2,6-dione]	2.46 nM
O=C1CCC(N2Cc3c(NCc4ccc(CCCNC56CC7CC(CC(C7)C5)C6)cc4)cccc3C2=O)C(=O)N1 (stereo not drawn) [SIAIS1227077, 3-(4-((4-(3-((adamantan-1-yl)amino)propyl)benzyl)amino)-1-oxoisoindolin-2-yl)piperidine-2,6-dione]	1.93 ± 0.31 nM
O=C1CCC(N2C(=O)c3ccc(NCCCCCNC45CC6CC(CC(C6)C4)C5)cc3C2=O)C(=O)N1 (stereo not drawn) [SIAIS1242069, 5-((5-((adamantan-1-yl)amino)pentyl)amino)-2-(2,6-dioxopiperidin-3-yl)isoindoline-1,3-dione]	2.27 nM
CC(NCCCCCCNc1cccc2c1C(=O)N(C1CCC(=O)NC1=O)C2=O)C12CC3CC(CC(C3)C1)C2 (stereo not drawn) [SIAIS1222191, 4-((6-((1-(adamantan-1-yl)ethyl)amino)hexyl)amino)-2-(2,6-dioxopiperidin-3-yl)isoindoline-1,3-dione]	2.22 nM
O=C1CCC(N2Cc3cc(CCCCCCCCNC45CC6CC(CC(C6)C4)C5)ccc3C2=O)C(=O)N1 (stereo not drawn) [SIAIS271187, 3-(5-(8-((adamantan-1-yl)amino)octyl)-1-oxoisoindolin-2-yl)piperidine-2,6-dione]	17 nM
O=C1CCC(N2Cc3c(CCCCCCCCN4CCCCC4)cccc3C2=O)C(=O)N1 (stereo not drawn) [SIAIS1221107, 3-(1-oxo-4-(8-(piperidin-1-yl)octyl)isoindolin-2-yl)piperidine-2,6-dione, reference compound]	3.93 nM

Stronger by IC50, values ahead:

IC50	SMILES
1.13 nM	O=C1CCC(N2Cc3c(OCCCCCCCNC4CCCCC4)cccc3C2=O)C(=O)N1 (stereo not drawn) [SIAIS1221187, 3-(4-((7-(cyclohexylamino)heptyl)oxy)-1-oxoisoindolin-2-yl)piperidine-2,6-dione]
0.28 nM	O=C1CCC(N2Cc3c(OCc4ccc(CNC56CC7CC(CC(C7)C5)C6)cc4)cccc3C2=O)C(=O)N1 (stereo not drawn) [SIAIS1228157, 3-(4-((4-(((adamantan-1-yl)amino)methyl)benzyl)oxy)-1-oxoisoindolin-2-yl)piperidine-2,6-dione]
0.326 nM	O=C1CCC(N2C(=O)c3cccc(NCCCCCCCNC4CCCCC4)c3C2=O)C(=O)N1 (stereo not drawn) [SIAIS1222039, 4-((7-(cyclohexylamino)heptyl)amino)-2-(2,6-dioxopiperidin-3-yl)isoindoline-1,3-dione]
0.13 nM	O=C1CCC(N2C(=O)c3cccc(NCCCCCCNCC45CC6CC(CC(C6)C4)C5)c3C2=O)C(=O)N1 (stereo not drawn) [SIAIS1222037, 4-((6-(((adamantan-1-yl)methyl)amino)hexyl)amino)-2-(2,6-dioxopiperidin-3-yl)isoindoline-1,3-dione]
0.854 nM	O=C1CCC(N2Cc3c(CCCCCCCCNC4CCCCC4)cccc3C2=O)C(=O)N1 (stereo not drawn) [SIAIS1221193, 3-(4-(8-(cyclohexylamino)octyl)-1-oxoisoindolin-2-yl)piperidine-2,6-dione]
0.069 nM	O=C1CCC(N2Cc3c(OCCCCCCCNC45CC6CC(CC4C6)C5)cccc3C2=O)C(=O)N1 (stereo not drawn) [SIAIS1242043, 3-(4-((7-((hexahydro-2,5-methanopentalen-3a(1H)-yl)amino)heptyl)oxy)-1-oxoisoindolin-2-yl)piperidine-2,6-dione]
0.63 nM	O=C1CCC(N2Cc3c(CCCCCCNC45CC6CC(CC(C6)C4)C5)cccc3C2=O)C(=O)N1 (stereo not drawn) [SIAIS1224043, 3-(4-(6-((adamantan-1-yl)amino)hexyl)-1-oxoisoindolin-2-yl)piperidine-2,6-dione]
0.383 nM	CC1(C)[C@@H]2CC[C@@]1(C)[C@@H](NCCCCCCCNc1cccc3c1C(=O)N(C1CCC(=O)NC1=O)C3=O)C2 (stereo partly drawn) [SIAIS1222041, 2-(2,6-dioxopiperidin-3-yl)-4-((7-(((1R,2S,4R)-1,7,7-trimethylbicyclo[2.2.1]heptan-2-yl)amino)heptyl)amino)isoindoline-1,3-dione]
0.123 nM	O=C1CCC(N2Cc3c(OCc4ccc(CCNC56CC7CC(CC(C7)C5)C6)cc4)cccc3C2=O)C(=O)N1 (stereo not drawn) [SIAIS1241169, 3-(4-((4-(2-((adamantan-1-yl)amino)ethyl)benzyl)oxy)-1-oxoisoindolin-2-yl)piperidine-2,6-dione]
1.51 nM	O=C1CCC(N2Cc3c(NCCCCCCCNC45CC6CC(CC(C6)C4)C5)cccc3C2=O)C(=O)N1 (stereo not drawn) [SIAIS1221091, 3-(4-((7-((adamantan-1-yl)amino)heptyl)amino)-1-oxoisoindolin-2-yl)piperidine-2,6-dione]
0.107 nM	O=C1CCC(N2Cc3c(NCc4ccc(CCNC56CC7CC(CC5C7)C6)cc4)cccc3C2=O)C(=O)N1 (stereo not drawn) [SIAIS1242061, 3-(4-((4-(2-((hexahydro-2,5-methanopentalen-3a(1H)-yl)amino)ethyl)benzyl)amino)-1-oxoisoindolin-2-yl)piperidine-2,6-dione]
1.11 nM	O=C1CCC(N2Cc3c(CCCCCCCNC45CC6CC(CC(C6)C4)C5)cccc3C2=O)C(=O)N1 (stereo not drawn) [SIAIS1224041, 3-(4-(7-((adamantan-1-yl)amino)heptyl)-1-oxoisoindolin-2-yl)piperidine-2,6-dione]
0.052 nM	CN(CCCCCCCOc1cccc2c1CN(C1CCC(=O)NC1=O)C2=O)C12CC3CC(CC(C3)C1)C2 (stereo not drawn) [SIAIS1222181, 3-(4-((7-((adamantan-1-yl)(methyl)amino)heptyl)oxy)-1-oxoisoindolin-2-yl)piperidine-2,6-dione]
1.2 nM	CC1(C)[C@@H]2CC[C@@]1(C)[C@@H](NCCCCCCCOc1cccc3c1CN(C1CCC(=O)NC1=O)C3=O)C2 (stereo partly drawn) [SIAIS1221189, 3-(1-oxo-4-((7-(((1R,2S,4R)-1,7,7-trimethylbicyclo[2.2.1]heptan-2-yl)amino)heptyl)oxy)isoindolin-2-yl)piperidine-2,6-dione]
0.877 nM	O=C1CCC(N2Cc3c(OCCCCCCC(=O)NC45CC6CC(CC(C6)C4)C5)cccc3C2=O)C(=O)N1 (stereo not drawn) [SIAIS1242075, N-(adamantan-1-yl)-7-((2-(2,6-dioxopiperidin-3-yl)-1-oxoisoindolin-4-yl)oxy)heptanamide]
1.26 nM	O=C1CCC(N2Cc3c(NCCCCCCNCC45CC6CC(CC(C6)C4)C5)cccc3C2=O)C(=O)N1 (stereo not drawn) [SIAIS1222073, 3-(4-((6-(((adamantan-1-yl)methyl)amino)hexyl)amino)-1-oxoisoindolin-2-yl)piperidine-2,6-dione]
1.1 nM	O=C1CCC(N2C(=O)c3cccc(NCCCCCNC45CC6CC(CC(C6)C4)C5)c3C2=O)C(=O)N1 (stereo not drawn) [SIAIS1222095, 4-((5-((adamantan-1-yl)amino)pentyl)amino)-2-(2,6-dioxopiperidin-3-yl)isoindoline-1,3-dione]
1.43 nM	O=C1CCC(N2C(=O)c3ccc(NCCCCCCCNC45CC6CC(CC(C6)C4)C5)cc3C2=O)C(=O)N1 (stereo not drawn) [SIAIS1221055, 5-((7-((adamantan-1-yl)amino)heptyl)amino)-2-(2,6-dioxopiperidin-3-yl)isoindoline-1,3-dione]
